Source: ChEMBL document CHEMBL1123604 (J Med Chem, 1987)

Columns and labels:
[1] = tested on: Canis familiaris; experiment: Myocardial contractility in anesthetized dog by intravenous dose; type: functional; details: Canis lupus familiaris, Myocardium
[2] = tested on: Canis familiaris; experiment: Change in heart rate(HR) in anesthetized dog; type: functional, Canis lupus familiaris
[3] = Inhibition of Guinea Pig cAMP specific phosphodiesterase (PDE III)
[4] = tested on: Canis familiaris; experiment: Change in mean arterial blood pressure(MAP) in anesthetized dog; type: functional, Canis lupus familiaris, Artery
[5] = tested on: Canis familiaris; experiment: Increased myocardial contractility (dP/dt max) in anesthetized dog at 6 mg/kg; type: functional, Canis lupus familiaris, Myocardium
[6] = tested on: Canis familiaris; experiment: Percent change of ventricular pressure in anesthetized dog at 0.01 mg/kg; type: functional, Canis lupus familiaris, Cardiac ventricle
[7] = tested on: Canis familiaris; experiment: Percent change of ventricular pressure in anesthetized dog at 0.1 mg/kg; type: functional, Canis lupus familiaris, Cardiac ventricle
[8] = tested on: Canis familiaris; experiment: Percent change in blood pressure in anesthetized dog at 0.01 mg/kg; type: functional, Canis lupus familiaris
[9] = tested on: Canis familiaris; experiment: Percent change of heart rate in anesthetized dog at 1 mg/kg; type: functional, Canis lupus familiaris
[10] = tested on: Canis familiaris; experiment: Increased contractility (dP/dt max) in Conscious dog at peroral dose of 0.31 mg/kg; type: functional, Canis lupus familiaris; details: route oral
[11] = tested on: Canis familiaris; experiment: Percent change in blood pressure in anesthetized dog at 0.031 mg/kg; type: functional, Canis lupus familiaris
[12] = tested on: Canis familiaris; experiment: Percent change in blood pressure in anesthetized dog at 0.1 mg/kg; type: functional, Canis lupus familiaris
[13] = tested on: Canis familiaris; experiment: Percent change in blood pressure in anesthetized dog at 0.31 mg/kg; type: functional, Canis lupus familiaris
[14] = tested on: Canis familiaris; experiment: Percent change of heart rate in anesthetized dog at 0.01 mg/kg; type: functional, Canis lupus familiaris
[15] = tested on: Canis familiaris; experiment: Percent change in blood pressure in anesthetized dog at 1 mg/kg; type: functional, Canis lupus familiaris
[16] = tested on: Canis familiaris; experiment: Percent change of heart rate in anesthetized dog at 0.031 mg/kg; type: functional, Canis lupus familiaris
[17] = tested on: Canis familiaris; experiment: Percent change of heart rate in anesthetized dog at 0.1 mg/kg; type: functional, Canis lupus familiaris
[18] = tested on: Canis familiaris; experiment: Percent change of ventricular pressure in anesthetized dog at 0.31 mg/kg; type: functional, Canis lupus familiaris, Cardiac ventricle
[19] = tested on: Canis familiaris; experiment: Percent change of ventricular pressure in anesthetized dog at 0.031 mg/kg; type: functional, Canis lupus familiaris, Cardiac ventricle
[20] = tested on: Canis familiaris; experiment: Percent change of ventricular pressure in anesthetized dog at 1 mg/kg; type: functional, Canis lupus familiaris, Cardiac ventricle
[21] = tested on: Canis familiaris; experiment: Percent change of heart rate in anesthetized dog at 0.31 mg/kg; type: functional, Canis lupus familiaris
[22] = tested on: Canis familiaris; experiment: Increased myocardial contractility (dP/dt max) in anesthetized dog
[23] = tested on: Canis familiaris; experiment: Increased myocardial contractility (dP/dt max) in conscious dog at 1 mg/kg peroral dose; type: functional, Canis lupus familiaris, Myocardium; details: route oral
[24] = tested on: Canis familiaris; experiment: Percent change in heart rate in anesthetized dog at 0.031 mg/kg; type: functional, Canis lupus familiaris
[25] = tested on: Canis familiaris; experiment: Percent change in ventricular pressure in anesthetized dog at 0.1 mg/kg; type: functional, Canis lupus familiaris, Cardiac ventricle
[26] = tested on: Canis familiaris; experiment: Percent change in ventricular pressure in anesthetized dog at 0.031 mg/kg; type: functional, Canis lupus familiaris, Cardiac ventricle
[27] = tested on: Canis familiaris; experiment: Increased myocardial contractility (dP/dt max) in conscious dog at 0.31 mg/kg peroral dose, range 10-20; type: functional, Canis lupus familiaris, Myocardium; details: route oral
[28] = tested on: Canis familiaris; experiment: Increased myocardial contractility (dP/dt max) in anesthetized dog at 8 mg/kg; type: functional, Canis lupus familiaris, Myocardium
[29] = tested on: Canis familiaris; experiment: Increased myocardial contractility (dP/dt max) in anesthetized dog at 2 mg/kg; type: functional, Canis lupus familiaris, Myocardium
[30] = Inhibition of Guinea Pig cAMP specific phosphodiesterase (PDE III); remark: listed apart in the source

Q: For `O=C1NN=C(c2ccc(-n3ccnc3)cc2)C12CCCC2`, which ED50 [1] is on record?
A: 1 mg/kg

Q: What about the Change [2] of the same compound?
A: 3.5%

Q: And the IC50 [3]?
A: 54 µM

Q: What about the Change [4] of the same compound?
A: -0.25%

Q: With `CC1CC(O)=NN=C1c1ccc(-n2ccnc2)cc1` (stereo not drawn) [CI-930] as the compound, how does the Dose [5] read?
A: 0.013 mg/kg

Q: Which ED50 [1] does the source give for `CCC1(C)C(=O)NN=C1c1ccc(-n2ccnc2)cc1` (stereo not drawn) here?
A: 0.37 mg/kg

Q: And the Change [2]?
A: 17%

Q: What about the IC50 [3] of the same compound?
A: 52 µM

Q: What about the Change [4] of the same compound?
A: 6%

Q: With `CCC1(CC)C(=O)NN=C1c1ccc(-n2ccnc2)cc1` as the compound, how does the ED50 [1] read?
A: > 1 mg/kg

Q: And the Change [2]?
A: 0%

Q: And the IC50 [3]?
A: 120 µM

Q: What about the Change [4] of the same compound?
A: 0%

Q: What does the source list for `CC1(C)C(=O)NN=C1c1ccncc1`?
A: ED50 [1]: 0.3 mg/kg; Change [2]: 11%; Change [4]: 1%

Q: For `O=C1CC(c2ccc(-n3ccnc3)cc2)=NN1`, which ED50 [1] is on record?
A: > 1 mg/kg

Q: And the Change [2]?
A: 0%

Q: What about the IC50 [3] of the same compound?
A: 590 µM

Q: What about the Change [4] of the same compound?
A: 0%

Q: Which results are given for `CC1(C)C(=O)NN=C1c1ccc(-n2ccnc2)cc1`?
A: Change [6]: 6%; Change [7]: 39%; Change [8]: -0.5%; Change [9]: 14%; ED50 [1]: 0.18 mg/kg; Change [2]: 4.9%; Change [10]: 24%; Change [11]: -4%; Change [12]: -11%; IC50 [3]: 22 µM; Change [13]: -20%; Change [14]: 0%; Change [4]: -14%; Dose [5]: 0.18 mg/kg; Change [15]: -34%; Change [16]: 0.2%; Change [17]: 0.8%; Change [18]: 78%; Change [19]: 10%; Change [20]: 100%; Change [21]: 9%

Q: What does the source list for `O=C1CCC(c2ccc(-n3ccnc3)cc2)=NN1` [IMAZODAN]?
A: Change [6]: 10.2%; Dose [22]: 0.045 mg/kg; Change [8]: -0.7%; Change [9]: 33.8%; Increase contractility [23]: 40%; Change [24]: 5.6%; Change [25]: 74.2%; Change [11]: -4.1%; Change [12]: -5.3%; Change [26]: 37.2%; Increase contractility [27]: 10%; Change [13]: -13.2%; Change [14]: 0%; Change [15]: -22.4%; Dose [28]: 0.045 mg/kg; Change [17]: 6.2%; Change [18]: 127.3%; Change [20]: 146.7%; Change [21]: 19.2%

Q: With `CC1CC(c2ccc(-n3ccnc3)cc2)=NNC1=O` (stereo not drawn) as the compound, how does the Dose [29] read?
A: 0.5 mg/kg

Q: For `CC1(C)CC(=O)NN=C1c1ccc(-n2ccnc2)cc1`, which Dose [29] is on record?
A: 0.2 mg/kg

Q: What does the source list for `CC1C(=O)NN=C1c1ccc(-n2ccnc2)cc1` (stereo not drawn)?
A: ED50 [1]: > 1 mg/kg; Change [2]: 0%; IC50 [30]: 140 µM; Change [4]: 0%

Q: What does the source list for `CCC1C(=O)NN=C1c1ccc(-n2ccnc2)cc1` (stereo not drawn)?
A: ED50 [1]: > 1 mg/kg; Change [2]: 0%; IC50 [3]: 270 µM; Change [4]: 0%

Q: With `CC1(C)C(=O)NN=C1c1ccc(-n2cnc3c2CCCC3)cc1` as the compound, how does the ED50 [1] read?
A: 0.2 mg/kg

Q: And the Change [2]?
A: 10%

Q: And the IC50 [3]?
A: 3.2 µM

Q: What about the Change [4] of the same compound?
A: -10%

Q: What does the source list for `CSc1ccc(C2=NNC(=O)C2(C)C)cc1`?
A: ED50 [1]: 0.35 mg/kg; Change [2]: 5%; Change [4]: -1%

Q: Which Dose [29] does the source give for `CC1(C)CC(c2ccc(-n3ccnc3)cc2)=NNC1=O` here?
A: 0.05 mg/kg
